{"source": "patent US12115209B2", "about": "“ROMO1-derived antimicrobial peptides including lysine substitution and variants thereof” (KOREA UNIVERSITY RESEARCH AND BUSINESS FOUNDATION, priority 2019, dated 2024)", "key": {"[1]": {"tested_on": "mouse red blood cells", "type": "cell-based", "protocol": "Red blood cells were diluted with PBS, centrifuged 3 times at 900 g for 10 minutes, and washed. 100 μl of the diluted red blood cell solution (10% v/v PBS) was dispensed into each well of a 96-well microplate, and KU-5878, KU-5878-K4, KU-5878-K4-D, melittin, magainin 2 or daptomycin was added to each well which was then filled with PBS to 200 μl, followed by reaction by incubation at 37° C. for 1 hour. Then, the supernatant of the reaction solution was separated, and the absorbance at a wavelength of 550 nm was measured using a spectrophotometer. As control, PBS and 0.1% Triton X-100 (Triton X-100) solution were used.\nBased on the results of measurement of the absorbance, the degree of red blood cell destruction was calculated according to Equation 1 below, and the results of the calculation are shown in FIG. 6. % The intact RBC=100(%)−[(absorbance of peptide-treated red blood cell solution−absorbance of PBS-treated red blood cell solution)/(absorbance of Triton X-100-treated red blood cell solution−absorbance of PBS-treated red blood cell solution)×100(%)] [Equation 1]"}, "[2]": {"tested_on": "Escherichia coli (ATCC 25922)", "type": "cell-based", "conditions": "ATCC 25922, 4 h", "protocol": "(§1) Specifically, each type of bacteria was cultured in 3% (w/v) TSB (tryptic soy broth) liquid medium at 37° C. and 200 rpm for 4 hours, and then further cultured under the same conditions for 3 hours to a concentration of 5×10^6 CFU/ml. Strain solutions were prepared by diluting each of the further cultured strains with SP buffer to a final concentration of 2×10^5 CFU/ml.\n(§2) Then, the KU-5878 peptide at varying concentrations (0 μg/ml to 300 μg/ml) was dispensed into each well of a 96-well microplate, and 100 μl (1×10^5 CFU/ml) of each of the prepared strain solutions was added thereto, mixed therewith, and allowed to react with the peptide in an incubator at 37° C. for 1 hour.\n(§3) In addition, 10 μl of each reaction solution of the peptide and the strain was plated on the TS agar plate at a constant size, and incubated in an incubator at 37° C. for 18 hours, and then colony formation on the plate was checked. The minimum bactericidal concentration was defined as the minimum concentration of the peptide at which no colony was formed, and the experimental results are shown in Table 2 below."}, "[3]": {"tested_on": "Enterobacter aerogenes (ATCC 13048)", "type": "cell-based", "conditions": "ATCC 13048, 4 h", "protocol": "as §1, §2, §3"}, "[4]": {"tested_on": "Streptomyces sindenensis (ATCC 12392)", "type": "cell-based", "conditions": "ATCC 12392, 4 h", "protocol": "as §1, §2, §3"}, "[5]": {"tested_on": "Bacillus subtilis (ATCC 6633)", "type": "cell-based", "conditions": "ATCC 6633, 4 h", "protocol": "as §1, §2, §3"}, "[6]": {"tested_on": "Enterococcus faecalis (ATCC 19433)", "type": "cell-based", "conditions": "ATCC 19433, 4 h", "protocol": "as §1, §2, §3"}, "[7]": {"tested_on": "Acinetobacter baumannii (ATCC 19606)", "type": "cell-based", "conditions": "ATCC 19606, 4 h", "protocol": "as §1, §2, §3"}, "[8]": {"tested_on": "Enterococcus faecium (ATCC 19434)", "type": "cell-based", "conditions": "ATCC 19434, 4 h", "protocol": "as §1, §2, §3"}, "[9]": {"tested_on": "Klebsiella pneumoniae (ATCC 13883)", "type": "cell-based", "conditions": "ATCC 13883, 4 h", "protocol": "as §1, §2, §3"}, "[10]": {"test": "Toxicity in vivo (survival and weight after intravenous injection)", "set-up": "species or system mouse (C57BL/6)", "conditions": "100 mg/kg intravenous", "protocol": "At this time, the maximum volume of the injection dose was 150 μl."}, "[11]": {"tested_on": "Human vascular endothelial cells (HUVECs)", "test": "Toxicity to human vascular endothelial cells (MTT)", "type": "cell-based", "conditions": "0 μg/ml to 300 μg/ml", "protocol": "PBS was used as a control.\nThe HUMEC medium was replaced with fresh medium, and KU-5878, melittin or magainin 2 were dispensed at various concentrations (0 μg/ml to 300 μg/ml). Then, each well was treated with 100 μl of MTT reagent and incubated at 37° C. for 2 hours. Then, the medium and the peptide were carefully removed so as not to separate the cells, and 100 μl of DMSO (dimethyl sulfoxide) was added to each well, and the absorbance at a wavelength of 570 nm was measured using a spectrophotometer. Relative cell viability was calculated as a percentage of the viability of untreated control cells."}, "[12]": {"tested_on": "Pseudomonas aeruginosa (ATCC 27853)", "test": "Minimum bactericidal concentration (MBC) assay", "type": "cell-based", "conditions": "Tables 11-21, no unit printed", "in_short": "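Strains were cultured in 3% TSB at 37° C and brought to 2×10^5 CFU/ml in SP buffer. This suspension was mixed with peptide (0–300 μg/ml) for 1 h at 37° C. Reaction mixtures were then plated on TS agar and incubated 18 h.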"}}, "note": "No end group written: not given here.", "data": [{"sequence": "KTMMQSGGTFGTFMAIGMGIR [KU-5878]", "values": [{"measurement": "hemolysis of red blood cells", "setting": "[1]", "result": "little hemolysis even at a high concentration"}, {"measurement": "MBC value", "setting": "[2]", "result": 85, "unit": "µg/mL"}, {"measurement": "MBC value", "setting": "[3]", "result": 90, "unit": "µg/mL"}, {"measurement": "MBC value", "setting": "[4]", "result": 95, "unit": "µg/mL"}, {"measurement": "MBC value", "setting": "[5]", "result": 90, "unit": "µg/mL"}, {"measurement": "MBC value", "setting": "[6]", "result": 85, "unit": "µg/mL"}, {"measurement": "MBC value", "setting": "[7]", "result": 100, "unit": "µg/mL"}, {"measurement": "MBC value", "setting": "[8]", "result": 85, "unit": "µg/mL"}, {"measurement": "MBC value", "setting": "[9]", "result": 100, "unit": "µg/mL"}, {"measurement": "effect on the weight of the mice", "setting": "[10]; 24-hour intervals for 12 days", "result": "no effect on the weight"}, {"measurement": "survival of mice after injection", "setting": "[10]; observed 12 days", "result": "all survived"}, {"measurement": "toxicity to the HUVECs (relative cell viability, MTT)", "setting": "[11]", "result": "very low toxicity"}, {"measurement": "MBC Pseudomonas aeruginosa", "setting": "[12]", "result": 100, "unit": "µg/mL"}]}]}
